The subject of test [1] is A/Puerto Rico/8/34 (A/H1N1) influenza virus isolates. The class given is cell-based.
For test [2], the system named is A/California/07/2009 (A/H1N1) influenza virus isolates. The class given is cell-based.

Here are results for one compound from patent US10801077B2, “Influenza A virus variants” (Vertex Pharmaceuticals Incorporated, priority 2014, dated 2020).

Turning to `CC(C)(C)[C@@H](CC(=O)O)Nc1nc(-c2c[nH]c3ncc(F)cc23)ncc1F` [Compound 1], the EC50 shift amounted to 286 fold in test [1] and 500 fold in test [2].
